The structures appear in SMILES notation.

This assay deals with S. pneumoniae Topoisomerase IV ATPase (ParE) (Streptococcus pneumoniae serotype 4, UniProt Q59961). The experiment in a line: S. pneumoniae Topoisomerase IV ATPase inhibition. In kind it is biochemical. To be noted: values marked * are an average of two or more data points, read-out: % Inh (13 μM) of S. pneumoniae Topoisomerase IV ATPase. Summed up: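 ParE ATPase (1.25 nM) run with 160 μM ATP and 5 μg/ml sheared salmon sperm DNA in Tris pH 8.0, Mg2+, glycerol, DTT, Brij-35. Phosphate released read by malachite green/molybdate absorbance at 650 nm. IC50 from 10 compound concentrations; DMSO (2%) as 0% and EDTA (20 μM) as 100% inhibition.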
Chain of S. pneumoniae Topoisomerase IV ATPase (ParE) (Q59961 whole entry): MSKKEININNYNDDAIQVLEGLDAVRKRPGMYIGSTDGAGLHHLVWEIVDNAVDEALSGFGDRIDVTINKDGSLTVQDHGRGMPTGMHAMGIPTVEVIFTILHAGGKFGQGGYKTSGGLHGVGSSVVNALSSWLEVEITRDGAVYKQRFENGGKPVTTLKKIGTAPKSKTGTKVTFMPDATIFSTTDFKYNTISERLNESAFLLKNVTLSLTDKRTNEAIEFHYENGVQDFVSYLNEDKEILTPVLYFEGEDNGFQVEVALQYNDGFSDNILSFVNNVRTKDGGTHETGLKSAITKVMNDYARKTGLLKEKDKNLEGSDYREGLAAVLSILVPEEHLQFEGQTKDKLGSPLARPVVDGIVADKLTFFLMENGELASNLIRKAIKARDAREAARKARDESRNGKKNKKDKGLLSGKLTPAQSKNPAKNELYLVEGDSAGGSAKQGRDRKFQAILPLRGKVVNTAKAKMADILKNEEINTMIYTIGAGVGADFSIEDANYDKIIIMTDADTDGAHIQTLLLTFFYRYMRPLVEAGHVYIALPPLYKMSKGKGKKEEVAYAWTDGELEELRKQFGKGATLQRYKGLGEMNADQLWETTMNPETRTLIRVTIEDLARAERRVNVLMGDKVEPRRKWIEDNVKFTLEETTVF
`COc1ncc(-c2cnc(Nc3cc(C)ccc3F)nc2-n2ccc(C(F)(F)F)n2)cc1C(=O)O` [Example 756, 5-{2-[(2-fluoro-5-methylphenyl)amino]-4-[3-(trifluoromethyl)-1H-pyrazol-1-yl]pyrimidin-5-yl}-2-methoxypyridine-3-carboxylic acid]: the inhibition at 13 µM came to 56%.

With `COc1ncc(-c2cnc(Nc3cc(C)ccc3F)nc2-n2nc(C(F)(F)F)cc2C)cc1C(=O)O` [Example 757, 5-{2-[(2-fluoro-5-methylphenyl)amino]-4-[5-methyl-3-(trifluoromethyl)-1H-pyrazol-01-yl]pyrimidin-5-yl}-2-methoxypyridine-3-carboxylic acid], the inhibition at 13 µM is 19%. Under `COc1cc(Cl)cc(Nc2ncc(-c3cnc(OC)c(C(=O)O)c3)c(-n3ccc(C(F)(F)F)n3)n2)c1` [Example 758, 5-{2-[(3-chloro-5-methoxyphenyl)amino]-4-[3-(trifluoromethyl)-1H-pyrazol-1-yl]pyrimidin-5-yl}-2-methoxypyridine-3-carboxylic acid] stands 98%.

Consider `COc1cc(Cl)cc(Nc2ncc(-c3cnc(OC)c(C(=O)O)c3)c(-n3nc(C(F)(F)F)cc3C)n2)c1` [Example 759, 5-{2-[(3-chloro-5-methoxyphenyl)amino]-4-[5-methyl-3-(trifluoromethyl)-1H-pyrazol-1-yl]pyrimidin-5-yl}-2-methoxypyridine-3-carboxylic acid], for which the inhibition at 13 µM is 100%. For the compound `COc1cc(C)cc(Nc2ncc(-c3cnc(OC)c(C(=O)O)c3)c(-n3ccc(C(F)(F)F)n3)n2)c1` [Example 760], the inhibition at 13 µM was determined as 100%.

As for `COc1cc(C)cc(Nc2ncc(-c3cnc(OC)c(C(=O)O)c3)c(-n3nc(C(F)(F)F)cc3C)n2)c1` [Example 761, 2-methoxy-5-{2-[(3-methoxy-5-methylphenyl)amino]-4-[5-methyl-3-(trifluoromethyl)-1H-pyrazol-1-yl]pyrimidin-5-yl}pyridine-3-carboxylic acid], the inhibition at 13 µM worked out at 100%. In the case of `Cc1cc(F)cc(Nc2ncc(-c3cncc(C(=O)O)c3)c(-n3ccc(C(F)(F)F)n3)n2)c1` [Example 770, 5-{2-[(3-fluoro-5-methylphenyl)-amino]-4-[3-(trifluoromethyl)-1H-pyrazol-1-yl]pyrimidin-5-yl}pyridine-3-carboxylic acid] it was 100%. For the compound `Cc1cc(F)cc(Nc2ncc(-c3cncc(C(=O)O)c3)c(-n3nc(C(F)(F)F)cc3C)n2)c1` [Example 771, 5-{2-[(3-fluoro-5-methylphenyl)-amino]-4-[5-methyl-3-(trifluoromethyl)-1H-pyrazol-1-yl]pyrimidin-5-yl}pyridine-3-carboxylic acid], the inhibition at 13 µM came out at 100%. Under `Cc1ccc(F)c(Nc2ncc(-c3cncc(C(=O)O)c3)c(-n3ccc(C(F)(F)F)n3)n2)c1` [Example 772, 5-{2-[(2-fluoro-5-methylphenyl)-amino]-4-[3-(trifluoromethyl)-1H-pyrazol-1-yl]pyrimidin-5-yl}pyridine-3-carboxylic acid] stands 81%; under `Cc1ccc(F)c(Nc2ncc(-c3cncc(C(=O)O)c3)c(-n3nc(C(F)(F)F)cc3C)n2)c1` [Example 773, 5-{2-[(2-fluoro-5-methylphenyl)-amino]-4-[5-methyl-3-(trifluoromethyl)-1H-pyrazol-1-yl]pyrimidin-5-yl}pyridine-3-carboxylic acid], 55%. In the case of `COc1cc(Cl)cc(Nc2ncc(-c3cncc(C(=O)O)c3)c(-n3ccc(C(F)(F)F)n3)n2)c1` [Example 774, 5-{2-[(3-chloro-5-methoxyphenyl)-amino]-4-[3-(trifluoromethyl)-1H-pyrazol-1-yl]pyrimidin-5-yl}pyridine-3-carboxylic acid] it was 100%; in that of `COc1cc(Cl)cc(Nc2ncc(-c3cncc(C(=O)O)c3)c(-n3nc(C(F)(F)F)cc3C)n2)c1` [Example 775, 5-{2-[(3-chloro-5-methoxyphenyl)-amino]-4-[5-methyl-3-(trifluoromethyl)-1H-pyrazol-1-yl]pyrimidin-5-yl}pyridine-3-carboxylic acid], 100%. `COc1cc(C)cc(Nc2ncc(-c3cncc(C(=O)O)c3)c(-n3ccc(C(F)(F)F)n3)n2)c1` [Example 776, 5-{2-[(3-methoxy-5-methylphenyl)amino]-4-[3-(trifluoromethyl)-1H-pyrazol-1-yl]pyrimidin-5-yl}pyridine-3-carboxylic acid]: the inhibition at 13 µM is 100%. Under `COc1cc(C)cc(Nc2ncc(-c3cncc(C(=O)O)c3)c(-n3nc(C(F)(F)F)cc3C)n2)c1` [Example 777, 5-{2-[(3-methoxy-5-methylphenyl)amino]-4-[5-methyl-3-(trifluoromethyl)-1H-pyrazol-1-yl]pyrimidin-5-yl}pyridine-3-carboxylic acid] stands 100%; under `COc1ncc(-c2cnc(Nc3cc(C)cc(C#N)c3)nc2-n2ccc(C(F)(F)F)n2)cc1C(=O)O` [Example 780, 5-{2-[(3-cyano-5-methylphenyl)amino]-4-[3-(trifluoromethyl)-1H-pyrazol-1-yl]pyrimidin-5-yl}-2-methoxypyridine-3-carboxylic acid], 100%; under `COc1ncc(-c2cnc(Nc3cc(C)cc(C#N)c3)nc2-n2nc(C(F)(F)F)cc2C)cc1C(=O)O` [Example 781, 5-{2-[(3-cyano-5-methylphenyl)amino]-4-[5-methyl-3-(trifluoromethyl)-1H-pyrazol-1-yl]pyrimidin-5-yl}-2-methoxypyridine-3-carboxylic acid], 99%. Take `Cc1cc(C#N)cc(Nc2ncc(-c3cncc(C(=O)O)c3)c(-n3ccc(C(F)(F)F)n3)n2)c1` [Example 784, 5-{2-[(3-cyano-5-methylphenyl)amino]-4-[3-(trifluoromethyl)-1H-pyrazol-1-yl]pyrimidin-5-yl}pyridine-3-carboxylic acid]: the inhibition at 13 µM is 70%.

`Cc1cc(C#N)cc(Nc2ncc(-c3cncc(C(=O)O)c3)c(-n3nc(C(F)(F)F)cc3C)n2)c1` [Example 785, 5-{2-[(3-cyano-5-methylphenyl)amino]-4-[5-methyl-3-(trifluoromethyl)-1H-pyrazol-1-yl]pyrimidin-5-yl}pyridine-3-carboxylic acid]: the inhibition at 13 µM turned out to be 100%. `Cc1cc(C(F)(F)F)nn1-c1nc(Nc2ccc(F)c(Cl)c2)ncc1-c1cnc(OC2CCN(C)C2)c(C(=O)O)c1` (stereo not drawn) [Example 787, 5-{2-[(3-chloro-4-fluorophenyl)amino]-4-[5-methyl-3-(trifluoromethyl)-1H-pyrazol-1-yl]pyrimidin-5-yl}-2-[(1-methylpyrrolidin-3-yl)oxy]pyridine-3-carboxylic acid]: the inhibition at 13 µM was determined as 97%. With `CN1CCC(Oc2ncc(-c3cnc(Nc4ccc(F)c(Cl)c4)nc3-n3ccc(C(F)(F)F)n3)cc2C(=O)O)C1` (stereo not drawn) [Example 789, 5-{2-[(3-chloro-4-fluorophenyl)amino]-4-[3-(trifluoromethyl)-1H-pyrazol-1-yl]pyrimidin-5-yl}-2-[(1-methylpyrrolidin-3-yl)oxy]pyridine-3-carboxylic acid], the inhibition at 13 µM is 99%. Under `Cc1cc(C(F)(F)F)nn1-c1nc(Nc2ccc(F)c(Cl)c2)ncc1-c1cnc(OC(C)c2ccncc2)c(C(=O)O)c1` (stereo not drawn) [Example 791, 5-{2-[(3-chloro-4-fluorophenyl)amino]-4-[5-methyl-3-(trifluoromethyl)-1H-pyrazol-1-yl]pyrimidin-5-yl}-2-[1-(pyridin-4-yl)ethoxy]pyridine-3-carboxylic acid] stands 97%; under `CC(Oc1ncc(-c2cnc(Nc3ccc(F)c(Cl)c3)nc2-n2ccc(C(F)(F)F)n2)cc1C(=O)O)c1ccncc1` (stereo not drawn) [Example 793, 5-{2-[(3-chloro-4-fluorophenyl)amino]-4-[3-(trifluoromethyl)-1H-pyrazol-1-yl]pyrimidin-5-yl}-2-[1-(pyridin-4-yl)ethoxy]pyridine-3-carboxylic acid], 100%; under `Cc1cc(C(F)(F)F)nn1-c1nc(Nc2ccc(F)c(Cl)c2)ncc1-c1cnc(OCCn2ccnc2)c(C(=O)O)c1` [Example 795, 5-{2-[(3-chloro-4-fluorophenyl)amino]-4-[5-methyl-3-(trifluoromethyl)-1H-pyrazol-1-yl]pyrimidin-5-yl}-2-[2-(1H-imidazol-1-yl)ethoxy]pyridine-3-carboxylic acid], 100%. Regarding `O=C(O)c1cc(-c2cnc(Nc3ccc(F)c(Cl)c3)nc2-n2ccc(C(F)(F)F)n2)cnc1OCCn1ccnc1` [Example 797, 5-{2-[(3-chloro-4-fluorophenyl)amino]-4-[3-(trifluoromethyl)-1H-pyrazol-1-yl]pyrimidin-5-yl}-2-[2-(1H-imidazol-1-yl)ethoxy]pyridine-3-carboxylic acid], the inhibition at 13 µM is 100%.

Turning to `COc1ncc(-c2cnc(Nc3cc(C)cc(Cl)c3)nc2-n2ccc(C(F)(F)F)n2)cc1C(=O)O` [Example 799, 5-{2-[(3-chloro-5-methylphenyl)amino]-4-[3-(trifluoromethyl)-1H-pyrazol-1-yl]pyrimidin-5-yl}-2-methoxypyridine-3-carboxylic acid], the inhibition at 13 µM came out at 100%. `COc1ncc(-c2cnc(Nc3cc(C)cc(Cl)c3)nc2-n2ccc(C(F)(F)F)n2)cc1C(=O)NS(C)(=O)=O` [Example 800, 5-{2-[(3-chloro-5-methylphenyl)amino]-4-[3-(trifluoromethyl)-1H-pyrazol-1-yl]pyrimidin-5-yl}-2-methoxy-N-(methylsulfonyl)pyridine-3-carboxamide]: the inhibition at 13 µM was 99%. Turning to `COc1ncc(-c2cnc(Nc3cc(C)cc(Cl)c3)nc2-n2nc(C(F)(F)F)cc2C)cc1C(=O)O` [Example 802, 5-{2-[(3-chloro-5-methylphenyl)amino]-4-[5-methyl-3-(trifluoromethyl)-1H-pyrazol-1-yl]pyrimidin-5-yl}-2-methoxypyridine-3-carboxylic acid], the inhibition at 13 µM was determined as 100%.
